Test results taken from patent publication US11827636B2, “Degradation of cyclin-dependent kinase 8 (CDK8) by conjugation of CDK8 inhibitors with E3 ligase ligand and methods of use” (DANA-FARBER CANCER INSTITUTE, INC., priority 2016, dated 2023).

What was measured:
Assay type in all cases: cell-based
CDK8 [1] = target: T1, CDK8 (Mus musculus, UniProt Q8R3L8); assay: Enzyme degradation assay (western blot), CDK8 level in MC38 colorectal cancer cells; settings: 6 hours
T1 construct: levels of CDK8, pS727-STAT1, and actin in MC38 colorectal cancer cells; endogenous in cells; host or cells: MC38 colorectal cancer cells
T1 sequence (Q8R3L8 1-464): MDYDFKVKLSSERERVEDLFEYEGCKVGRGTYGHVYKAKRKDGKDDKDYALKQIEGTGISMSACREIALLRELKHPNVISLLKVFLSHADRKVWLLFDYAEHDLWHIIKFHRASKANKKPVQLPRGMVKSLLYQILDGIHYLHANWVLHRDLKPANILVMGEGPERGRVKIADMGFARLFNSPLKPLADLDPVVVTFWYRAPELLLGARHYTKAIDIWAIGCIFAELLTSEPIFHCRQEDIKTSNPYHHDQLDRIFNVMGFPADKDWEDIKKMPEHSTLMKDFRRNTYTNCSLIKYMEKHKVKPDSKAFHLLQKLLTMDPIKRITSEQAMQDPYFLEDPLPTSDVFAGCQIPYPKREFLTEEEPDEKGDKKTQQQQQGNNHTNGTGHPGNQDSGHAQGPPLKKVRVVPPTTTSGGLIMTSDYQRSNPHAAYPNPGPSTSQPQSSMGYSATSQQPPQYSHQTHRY
T1 sequence (Q62447 1-283 partner): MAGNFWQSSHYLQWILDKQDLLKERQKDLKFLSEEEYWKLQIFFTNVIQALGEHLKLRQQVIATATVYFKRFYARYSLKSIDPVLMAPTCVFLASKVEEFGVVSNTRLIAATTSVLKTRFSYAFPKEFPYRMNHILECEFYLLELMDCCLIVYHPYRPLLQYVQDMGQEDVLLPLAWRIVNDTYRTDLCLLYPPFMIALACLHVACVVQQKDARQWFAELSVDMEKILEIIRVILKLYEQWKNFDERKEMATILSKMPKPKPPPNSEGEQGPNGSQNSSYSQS
T1 sequence (Q8C7D2 1-445 partner): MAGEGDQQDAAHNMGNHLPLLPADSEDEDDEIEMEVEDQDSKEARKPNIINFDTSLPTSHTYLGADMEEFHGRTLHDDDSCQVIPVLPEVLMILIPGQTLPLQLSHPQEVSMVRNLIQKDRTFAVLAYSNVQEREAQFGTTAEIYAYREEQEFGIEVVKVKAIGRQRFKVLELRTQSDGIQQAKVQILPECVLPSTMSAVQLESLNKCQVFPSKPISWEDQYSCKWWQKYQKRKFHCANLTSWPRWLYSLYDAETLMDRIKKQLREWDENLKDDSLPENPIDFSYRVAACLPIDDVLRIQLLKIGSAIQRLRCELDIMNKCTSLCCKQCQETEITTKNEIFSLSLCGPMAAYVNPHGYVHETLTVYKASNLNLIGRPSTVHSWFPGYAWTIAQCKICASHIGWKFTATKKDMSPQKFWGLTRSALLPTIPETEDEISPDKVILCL
Procedure: (§1) Cells are treated with a control or a bifunctional compound of the application alone or in combination with an agent that blocks proteasomal degradation at a single concentration or various concentrations. After treatment, cells are washed and harvested by resuspending in buffer and lysed on ice 30 minutes. Lysates are then cleared by centrifugation. Samples are boiled and equal amount of protein is loaded onto polyacrylamide gel. The gel is transferred to nitrocellulose and blotted for CDK8, mTOR, STAT1 serine 727 phosphorylation or actin.
Cells are treated with a control or a bifunctional compound of the application at various concentrations for a desired period of time. Cells are then lysed in a suitable buffer. Protein concentration may be measured with any appropriate assay known in the art. […] The signals from the label are detected.
The indicated cells were treated with vehicle control or the bifunctional compounds of the application, at a single or various concentrations, alone or in combination with bortezomib, an agent that blocks proteasomal degradation. […] Protein concentrations were determined by BCA assay, and equal amounts of protein were loaded onto gels to perform Western blots. […] Antibody binding was detected using near-infrared-dye-conjugated secondary antibodies. […]

pS727-STAT1 [2] = assay: Western blot, pS727-STAT1 level in wild-type (WT) Molt4 cells; settings: 1 μM compound, 6 hours
Procedure: as §1
(§2) The indicated cells were treated with vehicle control or the bifunctional compounds of the application, at a single or various concentrations, alone or in combination with bortezomib, an agent that blocks proteasomal degradation. After treatment, cells were washed with PBS and lysed in lysis buffer and then cleared by centrifugation. Protein concentrations were determined by BCA assay, and equal amounts of protein were loaded onto gels to perform Western blots. Gels were transferred to nitrocellulose, blocked with 5% milk in TBS-T, and probed for CDK8, mTOR, S727-STAT1, and Actin. Antibody binding was detected using near-infrared-dye-conjugated secondary antibodies.

pS727-STAT1 [3] = assay: Western blot, pS727-STAT1 level in MC38 colorectal cancer cells; settings: 6 hours
Procedure: as §1, §2

CDK8 [4] = target: T2, CDK8 (Homo sapiens, UniProt P49336); assay: Enzyme degradation assay (western blot), CDK8 level in wild-type (WT) Molt4 cells; settings: 1 μM compound, 6 hours
T2 construct: endogenous in cells; host or cells: wild-type Molt4 cells
T2 sequence (P49336 whole entry): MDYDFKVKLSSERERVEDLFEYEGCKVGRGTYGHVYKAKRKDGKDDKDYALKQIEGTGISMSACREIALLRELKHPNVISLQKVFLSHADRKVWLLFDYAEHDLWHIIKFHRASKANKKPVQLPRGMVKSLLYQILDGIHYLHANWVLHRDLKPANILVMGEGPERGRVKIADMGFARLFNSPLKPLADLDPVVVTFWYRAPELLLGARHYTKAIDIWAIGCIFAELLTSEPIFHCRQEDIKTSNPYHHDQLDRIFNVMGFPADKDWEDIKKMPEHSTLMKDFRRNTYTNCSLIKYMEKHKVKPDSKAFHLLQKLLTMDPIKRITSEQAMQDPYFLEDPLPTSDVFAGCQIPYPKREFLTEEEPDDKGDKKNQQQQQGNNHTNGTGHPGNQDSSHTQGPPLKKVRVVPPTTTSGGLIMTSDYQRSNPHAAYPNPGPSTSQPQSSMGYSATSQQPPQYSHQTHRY
T2 sequence (P24863 whole entry partner): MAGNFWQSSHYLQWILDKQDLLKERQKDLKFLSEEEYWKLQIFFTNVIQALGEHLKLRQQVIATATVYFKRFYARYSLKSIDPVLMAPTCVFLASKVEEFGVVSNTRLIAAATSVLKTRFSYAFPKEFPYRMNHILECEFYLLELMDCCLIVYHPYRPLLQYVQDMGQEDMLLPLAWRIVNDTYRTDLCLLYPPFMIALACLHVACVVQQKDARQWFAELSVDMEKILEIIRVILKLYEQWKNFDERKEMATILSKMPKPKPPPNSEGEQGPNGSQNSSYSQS
T2 sequence (Q96SW2 whole entry partner): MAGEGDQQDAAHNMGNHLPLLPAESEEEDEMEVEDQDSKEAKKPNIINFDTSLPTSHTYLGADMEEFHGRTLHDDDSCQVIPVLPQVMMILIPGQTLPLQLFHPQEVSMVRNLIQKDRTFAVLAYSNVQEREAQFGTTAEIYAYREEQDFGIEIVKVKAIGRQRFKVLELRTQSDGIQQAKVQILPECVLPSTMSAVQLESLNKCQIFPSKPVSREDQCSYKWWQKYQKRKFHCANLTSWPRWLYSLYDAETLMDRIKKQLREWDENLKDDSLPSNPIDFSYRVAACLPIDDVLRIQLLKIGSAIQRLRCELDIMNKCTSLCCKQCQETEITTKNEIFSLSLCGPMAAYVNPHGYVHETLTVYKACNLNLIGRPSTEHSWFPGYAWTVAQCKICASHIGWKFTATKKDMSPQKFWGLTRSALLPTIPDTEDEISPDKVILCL
Procedure: as §1, §2

[5] = 1 μM compound in combination with 10 nM bortezomib

## O=C1CCC(N2C(=O)c3cccc(NCCOCCOCCOCCOCCOCCC(=O)N4CCN(c5ccc(-n6c(=O)ccc7cnc8ccc(-c9ccc%10ccncc%10c9)cc8c76)cc5C(F)(F)F)CC4)c3C2=O)C(=O)N1 (centres unmarked) [Compound I-3, 2-(2,6-dioxopiperidin-3-yl)-4-((18-(4-(4-(9-(isoquinolin-7-yl)-2-oxobenzo[h][1,6]naphthyridin-1(2H)-yl)-2-(trifluoromethyl)phenyl)piperazin-1-yl)-18-oxo-3,6,9,12,15-pentaoxaoctadecyl)amino)isoindoline-1,3-dione]
CDK8 [1]; [5]
  degradation of CDK8 when the proteasome is inhibited with bortezomib: rescued
CDK8 [1]; 1 μM compound, alone
  degradation of CDK8 (western blot level of CDK8): efficiently degraded CDK8
pS727-STAT1 [2]
  phosphorylation of Ser727-STAT1: blocked phosphorylation
pS727-STAT1 [3]; [5]
  reduction in the level of pSer727-STAT1 when the proteasome is inhibited with bortezomib: rescued
pS727-STAT1 [3]; 1 μM compound, alone
  level of phosphorylation of the CDK8 substrate Ser727-STAT1: lowered the level of phosphorylation
CDK8 [4]
  degradation of CDK8 (western blot level of CDK8): efficiently degraded CDK8

## O=C1CCC(N2C(=O)c3cccc(NCCCCn4cc(-c5ccc(-c6cncc(Cl)c6N6CCC7(CCNC7=O)CC6)cc5)cn4)c3C2=O)C(=O)N1 (centres unmarked) [Compound I-6, 4-(4-(4-(4-(5-chloro-4-(1-oxo-2,8-diazaspiro[4.5]decan-8-yl)pyridin-3-yl)phenyl)-1H-pyrazol-1-yl)butylamino)-2-(2,6-dioxopiperidin-3-yl)isoindoline-1,3-dione]
pS727-STAT1 [2]
  phosphorylation of Ser727-STAT1: blocked phosphorylation
CDK8 [4]
  degradation of CDK8 (western blot level of CDK8): efficiently degraded CDK8
